# Measurements published in publication PMC11240878, “Synthesis, enzyme inhibition assay, and molecular modeling study of novel pyrazolines linked to 4-methylsulfonylphenyl scaffold: antitumor activity and cell cycle analysis” (RSC Advances, 2024).
# Legend:
# Assay type in all cases: cell-based, human
# EKVX = assay: NCI single-dose GI%, NSC lung; conditions: 10.0 μM in one dose
# NCI-H23 = assay: NCI single-dose GI%, NSC lung; conditions: 10.0 μM in one dose
# HCT-15 = assay: NCI single-dose GI%, colon; conditions: HCT-15, colon; 10.0 μM in one dose
# 59 cancer cell lines = assay: NCI 59 cancer cell line panel, single dose; conditions: for MG% (mean growth percent): 10 μM single dose, 59 cell lines
# T-47D = assay: NCI single-dose GI%, breast; conditions: 10.0 μM in one dose
# PC-3 = assay: NCI single-dose GI%, prostate; conditions: PC-3, prostate; 10.0 μM in one dose
# DU-145 = assay: NCI single-dose GI%, prostate; conditions: DU-145, prostate; 10.0 μM in one dose
# MOLT-4 = assay: NCI single-dose GI%, leukemia; conditions: MOLT-4, leukemia; 10.0 μM in one dose
# RPMI-8226 = assay: NCI single-dose GI%, leukemia; conditions: RPMI-8226, leukemia; 10.0 μM in one dose
# A498 = assay: NCI single-dose GI%, renal; conditions: 10.0 μM in one dose
# LOX IMVI = assay: NCI single-dose GI%, melanoma; conditions: 10.0 μM in one dose
# U251 = assay: NCI single-dose GI%, CNS; conditions: 10.0 μM in one dose
# SR = assay: NCI single-dose GI%, leukemia; conditions: 10.0 μM in one dose
# MDA-MB-231/ATCC = assay: NCI single-dose GI%, breast; conditions: 10.0 μM in one dose
# SF-539 = assay: NCI single-dose GI%, CNS; conditions: SF-539, CNS; 10.0 μM in one dose
# HT29 = assay: NCI single-dose GI%, colon; conditions: 10.0 μM in one dose
# MDA-MB-468 = assay: NCI single-dose GI%, breast; conditions: MDA-MB-468, breast; 10.0 μM in one dose
# SF-295 = assay: NCI single-dose GI%, CNS; conditions: SF-295, CNS; 10.0 μM in one dose
# NCI-H226 = assay: NCI single-dose GI%, NSC lung; conditions: 10.0 μM in one dose
# HCT-116 = assay: NCI single-dose GI%, colon; conditions: HCT-116, colon; 10.0 μM in one dose
compound,measurement,setting,value
"Cc1ccc(NC(=O)c2ccc(CN3CCN(C)CC3)cc2)cc1Nc1nccc(-c2cccnc2)n1 [Imatinib, reference compound]",GI%,EKVX,15.7%
same,GI%,NCI-H23,17.1%
same,GI%,HCT-15,11.5%
same,MG% (mean growth percent),59 cancer cell lines,92.62%
same,MG% (mean growth percent),59 cancer cell lines; listed as imatinib,92.62%
same,"GI% range, CNS cancer","59 cancer cell lines; CNS cancer subpanel, 10 μM",11–25%
same,"GI% range, NSCLC","59 cancer cell lines; NSCLC subpanel, 10 μM",11–17%
same,GI% range against most of the cancer cell lines tested,"59 cancer cell lines; all subpanels, 10 μM",< 10–47%
same,"GI% range, breast cancer","59 cancer cell lines; breast cancer subpanel, 10 μM",11–29%
same,"GI% range, colon cancer","59 cancer cell lines; colon cancer subpanel, 10 μM",12–47%
same,"GI% range, leukemia","59 cancer cell lines; leukemia subpanel, 10 μM",13–18%
same,"GI% range, melanoma","59 cancer cell lines; melanoma subpanel, 10 μM",12–22%
same,"GI% range, ovarian cancer","59 cancer cell lines; ovarian cancer subpanel, 10 μM",< 10%
same,"GI% range, prostate cancer","59 cancer cell lines; prostate cancer subpanel, 10 μM",11–14%
same,"GI% range, renal cancer","59 cancer cell lines; renal cancer subpanel, 10 μM",< 10–14%
same,GI%,T-47D,18.6%
same,GI%,PC-3,10.6%
same,GI%,DU-145,14.4%
same,GI%,MOLT-4,18%
same,GI%,RPMI-8226,12.6%
same,GI%,A498,13.7%
same,GI%,LOX IMVI,11.6%
same,GI%,U251,10.6%
same,GI%,SR,14.6%
same,GI%,MDA-MB-231/ATCC,11.2%
same,GI%,SF-539,24.5%
same,GI%,HT29,47.1%
same,GI%,MDA-MB-468,29.1%
same,GI%,SF-295,15.1%
same,GI%,NCI-H226,10.6%
same,GI%,HCT-116,18.6%
